The test concerns zebrafish lateral line hair cells. In words: Standard assay: manual hair cell counting from individual neuromasts (confocal). In kind it is in vivo, Danio rerio. Conditions: same representative experiment as PEPITA curve; read-out: EC50 (Standard Assay, normalized HC counts from individual neuromasts). The protocol: To prepare the fish for confocal microscopy, fish were fixed in 2% paraformaldehyde for 1 hour at room temperature as described previously ([Philip et al., 2018]), before being transferred to fluoromount and mounted between two glass coverslips. To avoid crushing the fish, a dot of nail polish was placed on each corner of the coverslip so that the top coverslip sat slightly above the bottom coverslip where the fish was mounted. Fluorescent confocal microscopy was performed using a Leica Stellaris 8 microscope. Cranial lateral line neuromasts of each fish were imaged under an HC PL APO CS2 40x/1.30 oil objective with a 405 nm laser and 541/47 emission filter. Images were taken as z-stacks in 0.66 µm steps. Stacks were transformed into average intensity projections and prepared for visual analysis in ImageJ.
For hair cell survival quantification from individual neuromasts, trained observers counted surviving hair cells in confocal images of neuromasts of larvae that had been treated with various doses of neomycin. Two to eight neuromasts were scored per condition, and counts for each neuromast were averaged between two scorers. These counts were divided by previously characterized mean hair cell counts ([Harris et al., 2003]), matched by anatomical position, to yield a position-scaled measure of HCs present in each neuromast. […]

This passage reports EC50 results from PMC10955247, “In vivo screening for toxicity-modulating drug interactions identifies antagonism that protects against ototoxicity in zebrafish” (Frontiers in Pharmacology, 2024).

The structures appear in SMILES notation. Structures can show the parent of a compound that is named as a salt.

Turning to `NC[C@@H]1O[C@H](O[C@H]2[C@@H](O)[C@H](O[C@@H]3[C@@H](O)[C@H](N)C[C@H](N)[C@H]3O[C@H]3O[C@H](CN)[C@@H](O)[C@H](O)[C@H]3N)O[C@@H]2CO)[C@H](N)[C@@H](O)[C@@H]1O` [Neomycin, Neomycin sulfate hydrate], the EC50 was found to be 2000 nM.

As a reminder, the EC50 is the concentration that produces a half-maximal response.
